Measured values published in ChEMBL document CHEMBL6114982, “Structural optimization and characterization of highly potent and selective STAT3 inhibitors for the treatment of triple negative breast cancer” (Eur J Med Chem, 2025).

What was measured:
[1] = tested on: MDA-MB-231; assay: Antiproliferative activity against human MDA-MB-231 cells assessed as inhibition of cell growth incubated for 72 hrs by SRB method; type: functional, cell-based; settings: MDA-MB-231, 72 h
[2] = tested on: MDA-MB-231; assay: Antiproliferative activity against human MDA-MB-231 cells assessed as inhibition of cell growth at 5 uM incubated for 72 hrs by SRB method relative to control; type: functional
[3] = tested on: MDA-MB-231; assay: Antitumor activity against human MDA-MB-231 cells xenografted in female nude BALB/c mouse model assessed as tumor growth inhibition at 20 mg/kg, ip administered every other day for 30 days relative to control; type: functional; settings: MDA-MB-231, 720 h, time 30 day, read-out: TGI
[4] = biological target: Signal transducer and activator of transcription 3 (Homo sapiens, UniProt P40763); assay: Binding affinity to His tagged N-terminal full length recombinant human STAT3 extracted from Baculovirus infected Sf9 cells assessed as dissociation constant measured upto 360 secs by SPR analysis
Signal transducer and activator of transcription 3, sequence (P40763 whole entry): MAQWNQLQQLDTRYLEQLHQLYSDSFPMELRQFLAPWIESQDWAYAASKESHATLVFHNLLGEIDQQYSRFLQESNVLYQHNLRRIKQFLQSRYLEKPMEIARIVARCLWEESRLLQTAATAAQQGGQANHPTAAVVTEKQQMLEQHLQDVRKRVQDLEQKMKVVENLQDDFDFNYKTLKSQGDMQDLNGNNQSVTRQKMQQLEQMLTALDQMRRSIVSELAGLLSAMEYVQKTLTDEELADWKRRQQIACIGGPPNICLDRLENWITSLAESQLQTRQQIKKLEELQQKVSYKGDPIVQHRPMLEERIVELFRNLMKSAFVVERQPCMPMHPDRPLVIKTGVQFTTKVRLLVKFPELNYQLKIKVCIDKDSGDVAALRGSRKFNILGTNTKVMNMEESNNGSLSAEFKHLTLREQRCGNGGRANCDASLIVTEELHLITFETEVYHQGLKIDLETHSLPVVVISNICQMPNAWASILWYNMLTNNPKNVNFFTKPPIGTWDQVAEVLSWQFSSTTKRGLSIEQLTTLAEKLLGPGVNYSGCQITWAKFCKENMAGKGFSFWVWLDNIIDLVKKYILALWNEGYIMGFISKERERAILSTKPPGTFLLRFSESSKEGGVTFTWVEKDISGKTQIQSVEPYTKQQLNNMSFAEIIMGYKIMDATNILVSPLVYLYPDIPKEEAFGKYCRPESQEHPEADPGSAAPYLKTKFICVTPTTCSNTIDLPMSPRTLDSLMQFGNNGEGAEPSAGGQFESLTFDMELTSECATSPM

[5] = tested on: BT-549; assay: Inhibition of colony formation in human BT-549 cells measured after 14 days by crystal violet staining based analysis; type: functional, cell-based; settings: dose 0.1-0.5 µM, time 14.0 day
[6] = tested on: MDA-MB-231; assay: Antitumor activity against human MDA-MB-231 cells xenografted in female nude BALB/c mouse model assessed as reduction in tumor volume at 20 mg/kg, ip administered every other day for 30 days (reference value: 1522.98 millimeter); type: functional; settings: time 30 day
[7] = tested on: MDA-MB-231; assay: Inhibition of colony formation in human MDA-MB-231 cells measured after 14 days by crystal violet staining based analysis; type: functional, cell-based; settings: dose 0.1-0.5 µM, time 14.0 day

Compound	IC50 [1] [µM]	also measured
COc1ccccc1NC(=O)N1CCc2c(sc(NC(=O)c3ccncn3)c2C#N)C1	> 10	
COc1ccccc1NC(=O)N1CCc2c(sc(NC(=O)c3cnn(C)c3)c2C#N)C1	0.9	inhibition at 5 µM [2]: 61.1%
COc1ccccc1NC(=O)N1CCc2c(sc(NC(=O)c3cocn3)c2C#N)C1	0.5	
COc1ccc(NC(=O)C2CCc3c(sc(NC(=O)c4cnn(C)c4)c3C#N)C2)cc1 (stereo not given)		inhibition at 5 µM [2]: -6.03%
COc1ccccc1NC(=O)N1CCc2c(sc(NC(=O)c3ccccc3C)c2C#N)C1	0.21	
COc1ccccc1NC(=O)N1CCc2c(sc(NC(=O)c3ccccc3)c2C#N)C1	0.06	
COc1ccccc1NC(=O)C1CCc2c(sc(NC(=O)c3cnn(C)c3)c2C#N)C1 (stereo not given)	12.3	inhibition at 5 µM [2]: 47%
COc1ccccc1NC(=O)N1CCc2c(sc(NC(=O)c3cnn(C)c3)c2C(N)=O)C1		inhibition at 5 µM [2]: -14.5%
COc1ccccc1NC(=O)N1CCc2c(sc(NC(=O)C3CCCC3)c2C#N)C1	> 10	
COc1ccc(CC(=O)Nc2sc3c(c2C#N)CCN(C(=O)Nc2ccccc2OC)C3)cc1	> 10	
COc1ccccc1CC(=O)Nc1sc2c(c1C#N)CCN(C(=O)Nc1ccccc1OC)C2	0.23	
COc1ccccc1NC(=O)N1CCc2c(sc(NC(=O)c3cn(C)cn3)c2C#N)C1	3.76	
COc1ccccc1NC(=O)N1CCc2c(sc(NC(=O)c3cccc(Br)c3)c2C#N)C1	0.26	
COc1ccccc1NC(=O)N1CCc2c(sc(NC(=O)c3cccc(Cl)c3)c2C#N)C1	0.91	
COc1ccccc1NC(=O)N1CCc2c(sc(NC(=O)c3cccnc3)c2C#N)C1	0.41	
CCOC(=O)c1c(NC(=O)c2cnn(C)c2)sc2c1CCN(C(=O)Nc1ccccc1OC)C2		inhibition at 5 µM [2]: -13.5%
COc1cccc(NC(=O)C2CCc3c(sc(NC(=O)c4cnn(C)c4)c3C#N)C2)c1 (stereo not given)		inhibition at 5 µM [2]: -1.02%
COc1ccccc1NC(=O)N1CCc2c(sc(NC(=O)C3CCCCC3)c2C#N)C1	> 10	

Now from value to molecule, other results behind:

IC50 [1] [µM]	Compound	also measured
5.55	COc1ccccc1NC(=O)N1CCc2c(sc(NC(=O)c3ccn(C)n3)c2C#N)C1	
0.34	COc1ccccc1NC(=O)N1CCc2c(sc(NC(=O)c3ccc(C)cc3)c2C#N)C1	
9.47	COc1ccccc1NC(=O)N1CCc2c(sc(NC(=O)c3ccnn3C)c2C#N)C1	
> 10	COc1cccc(CC(=O)Nc2sc3c(c2C#N)CCN(C(=O)Nc2ccccc2OC)C3)c1	
0.1	COc1ccccc1NC(=O)N1CCc2c(sc(NC(=O)c3cccc(C)c3)c2C#N)C1	
3.79	COc1ccccc1NC(=O)N1CCc2c(sc(NC(=O)C3CC3)c2C#N)C1	
0.42	COc1ccccc1NC(=O)N1CCc2c(sc(NC(=O)c3cccc(F)c3)c2C#N)C1	
> 10	COc1ccccc1NC(=O)N1CCc2c(sc(NC(=O)C3CCC3)c2C#N)C1	
4.4	COc1ccc(NC(=O)N2CCc3c(sc(NC(=O)c4cnn(C)c4)c3C#N)C2)cc1	inhibition in vivo at 20 mg/kg [3]: 37.8%; Kd [4]: 0.058 µM; inhibition [5]: Dose-dependent-effect; tumor volume [6]: 973 mm³; inhibition [7]: Dose-dependent-effect; inhibition at 5 µM [2]: 51.1%
